# In US11760733B2, “Small molecule regulators of mitochondrial fusion and methods of use thereof” (Washington University, priority 2017, dated 2023):
# Entries after “also recorded” stand apart in the source; their conditions may differ.
# Tests used:
# [1] = test system: MFN2 Asp378 and Ala378 mutants; test: Mitochondrial fusion in cells expressing MFN2 Ser378 mutants; format: cell-based, human; conditions: phosphomimic Asp378 vs nonphosphorylatable Ala378
# Text: On the basis of fluorescence resonance energy transfer (FRET) analysis of MFN2 labeled at the N and C termini, mitofusin agonists promoted an open MFN2 conformation favoring mitochondrial fusion, with a rank order paralleling that for HR2 binding and mitochondrial fusion (see e.g., FIG. 11G; compare to FIG. 11B and FIG. 11C), supporting allosteric activation.
# Human Mfn2 Ser378 was mutated to Ala or Asp by site-directed mutagenesis using the QuikChange Lightning kit (Agilent Technologies Inc.) and primers: […]
# Mfn2 and its mutants were sub-cloned into adenoviral vector Type 5 (dE1/E3) with RGD-fiber modification (Vector Biolabs) using BamHI/XhoI. All constructs were verified by Sanger DNA sequencing. Adeno-viral PINK1 was purchased from Vector Biolabs.
# [2] = test system: MEFs expressing CMT2A mutant MFN2; test: Mitochondrial dysmorphology in MEFs expressing MFN2 mutants; format: cell-based, mouse; conditions: MFN2 T105M in MEFs
# Protocol: Fusogenic activity of commercially available small-molecule candidate pharmacophores (TABLE 4), focusing on those having structures that mimicked Ser^378-phosphorylated (class A) and -unphosphorylated (class B) minipeptide amino acid side chains were assessed (see e.g., FIG. 5, TABLE 5). It was reasoned that simultaneous application of class A and B agonists could enhance mitofusin by acting on both MFN2 Ser^378 phosphorylation states. […] Therefore, Cpd A and B functionality were assimilated into a single molecule by creating Cpd A-B chimeras (see e.g., FIG. 11, FIG. 7, TABLE 6). […] On the basis of fluorescence resonance energy transfer (FRET) analysis of MFN2 labeled at the N and C termini, mitofusin agonists promoted an open MFN2 conformation favoring mitochondrial fusion, with a rank order paralleling that for HR2 binding and mitochondrial fusion (see e.g., FIG. 11G; compare to FIG. 11B and FIG. 11C), supporting allosteric activation. […]
# Cells were excited with 408 nm (Hoechst), […] (MitoTracker Green and Calcein AM, GFP), or 637 nm (TMRE, MitoTracker Orange, Ethidium homodimer-1, and AF594-Dextran) laser diodes. For mitochondrial elongation studies mitochondrial aspect ratio (long axis/short axis) was calculated using automated edge detection and Image J software. […]
# [3] = test system: MFN2 T105M sciatic nerves; test: Sciatic nerve axonal mitochondrial motility, agonist applied to nerve; conditions: MFN2 T105M mouse sciatic nerve
# Protocol: Sciatic nerves of 12-18 week old male or female MFN2 T105M mice were removed en bloc with the lumbar spine and axotomy at the tibial nerve, stained with TMEM ([…]) for 30 minutes in prewarmed Neurobasal Medium without phenol red (Thermo Fisher Scientific) at room temperature, washed, and maintained on the stage of a Nikon A1Rsi Confocal Microscope at 37 degrees C. for time-lapse confocal studies. Images were acquired with a 40× oil immersion objective at 1 frame every 5 or 10 seconds for sequential 10 minute periods. Mitofusin agonist chimera B-A/I was added after the first 10 minute imaging period (final concentrations of […]) and nerve axons imaged for another 40 minutes. Because there was no difference in mitochondrial trafficking or response to mitofusin agonist between male and female mice, the data were combined.
# [4] = test system: ALS and HD patient-derived fibroblasts; test: Mitochondrial health in ALS and HD patient-derived fibroblasts; format: cell-based, human
# Protocol: HD patient-derived fibroblast cell lines (GM04693 from patient and GM05539 from patient) were purchased from Invitrogen. ALS patient-derived fibroblasts (ALS 1: ND29509 from patient having SOD1 mutation; ALS 2: ND30327 having FUS1 mutation) and fibroblasts of control healthy individuals were purchased from Coriell Institute, USA. All fibroblast cultures were maintained in MEM supplemented with 15% (v/v) FBS and 1% (v/v) penicillin/streptomycin at 37° C. in 5% CO2-95% air. Galactose media was used, to increase mitochondria-dependent metabolism oxidative phosphorylation. Human fibroblasts were switched to grow for 48 h in DMEM deprived of glucose and containing galactose (4.5 g/l), 1% FBS, 5 mM sodium pyruvate and 2 mM L-glutamine for the studies.
# Cells cultured in 8-well chamber slides were washed with cold PBS, fixed in 4% formaldehyde, and permeabilized with 0.1% Triton X-100. After incubation with 2% normal goat serum (to block nonspecific staining), fixed cells were incubated overnight at 4° C. with TOM20 antibody (1:500) (Santa Cruz, USA). Cells were washed with PBS and incubated for 60 minutes with FITC-conjugated goat anti-rabbit IgG (1:500 dilution). The cells were then washed gently with PBS and counterstained with Hoechst 33342 (1:10,000 dilution, Molecular Probes) to visualize nuclei. The coverslips were mounted with Slow-fade anti-fade reagent (Invitrogen), and images were acquired at 60× using an All-in-One Fluorescence Microscope BZ-X700 (Keyence).
# Cells were incubated with tetra-methyl-rhodamine methyl ester (TMRM, 25 nM, Invitrogen) in HBSS (Hank's balanced salt solution) for 30 min at 37° C., per the manufacture's protocol, and the fluorescence was analyzed to measure mitochondrial membrane potential. All data were normalized with respect to the fluorescence intensity of control cells. To determine mitochondrial ROS production, cells were treated with 5 μM MitoSOX™ Red, a mitochondrial superoxide indicator (Invitrogen) for 20 min at 37° C., according to the manufacturer's protocol, and fluorescence was analyzed using SpectraMax M2e (Molecular devices).
compound,measurement,setting,value
"CC1CCCCC1NC(=O)NCCSc1nnc(C2CC2)n1-c1ccccc1 (racemic) [B-A/I, 1-(2-((5-cyclopropyl-4-phenyl-4H-1,2,4-triazol-3-yl)thio)ethyl)-3-(2-methylcyclohexyl)urea]",selectivity of fusogenic effect for MFN2 Ser378 mutants,[1],non-selective
same,reversal of mitochondrial dysmorphology,[2],as effective as the combination of Cpds A+B
same,sciatic nerve axonal mitochondrial motility,[3],rapidly reverses mitochondrial dysmotility; also recorded: restored mitochondrial motility to within normal levels
same,mitochondrial structural defects,[4]; ALS and HD fibroblasts,enhances mitochondrial structural defects
same,mitochondrial ROS levels,"[4]; ALS and HD fibroblasts, MitoSOX",reduces mitochondrial ROS levels
same,mitochondrial membrane potential,"[4]; ALS and HD fibroblasts, TMRM",improves mitochondrial membrane potential
same,effect on fibroblasts from control subjects,[4]; control fibroblasts,no effect
